Test results taken from article PMC4700511 (Biochemistry, 2015).
In brackets after ≈: the same amount, converted by molar mass.

Key:
VIM-2 [1] = target: T1, VIM-2 (Escherichia coli, UniProt Q5U7L7); test: BTZ inhibition kinetics of nitrocefin hydrolysis by VIM-2; format: biochemical, P. aeruginosa; conditions: for Ki: overall dissociation constant from vs, slow binding model
VIM-24 [2] = target: T2, VIM-24 (Escherichia coli, UniProt Q5U7L7, R205L); test: BTZ inhibition kinetics of nitrocefin hydrolysis by VIM-24; format: biochemical, Klebsiella pneumoniae; conditions: for Ki: overall dissociation constant from vs, slow binding model
MBLs = test: Inhibitory activity toward MBLs after prolonged exposure to oxidative conditions; format: biochemical; conditions: assays in solution; data not shown
[3] = test system: E. coli DH10B pBCSK(−) producing VIM-2 (228R); test: MIC by agar dilution, E. coli DH10B pBCSK; format: cell-based; conditions: Escherichia coli
[4] = test system: E. coli DH10B pBCSK(−) producing R228Q; test: MIC by agar dilution, E. coli DH10B pBCSK; format: cell-based; conditions: Escherichia coli
[5] = test system: E. coli DH10B pBCSK(−) producing R228X (other variants); test: MIC by agar dilution, E. coli DH10B pBCSK; format: cell-based; conditions: Escherichia coli, R228X: range of MIC values of the other variants; MHA
[6] = test system: E. coli DH10B pBCSK(−) producing R228M; test: MIC by agar dilution, E. coli DH10B pBCSK; format: cell-based; conditions: Escherichia coli
[7] = test system: E. coli DH10B pBCSK(−) producing R228P; test: MIC by agar dilution, E. coli DH10B pBCSK; format: cell-based; conditions: Escherichia coli
E. coli pBC SK(−) = test: MIC by agar dilution, E. coli DH10B with empty pBC SK; format: cell-based; conditions: Escherichia coli
[8] = test system: E. coli DH10B pBCSK(−) producing R228Y; test: MIC by agar dilution, E. coli DH10B pBCSK; format: cell-based; conditions: Escherichia coli
[9] = test system: E. coli DH10B pBCSK(−) producing VIM-24 (R228L); test: MIC by agar dilution, E. coli DH10B pBCSK; format: cell-based; conditions: Escherichia coli
[10] = test system: E. coli DH10B pBCSK(−) producing R228K; test: MIC by agar dilution, E. coli DH10B pBCSK; format: cell-based; conditions: Escherichia coli
VIM-24 [11] = target: T2, VIM-24; test: Hydrolysis of cefepime and ceftazidime by periplasm preparations, VIM-24; format: biochemical, Klebsiella pneumoniae; conditions: VIM-24 periplasmic preparation; 800 μM cefepime
VIM-2 [12] = target: T1, VIM-2; test: Hydrolysis of cefepime and ceftazidime by periplasm preparations, VIM-2; format: biochemical, P. aeruginosa; conditions: VIM-2 periplasmic preparation; 800 μM cefepime
[13] = rate constant for formation of E*I

SMILES | Ki (VIM-2 [1]) [nM] | Ki (VIM-24 [2]) [nM] | MIC ([3]; MHA) [µg/mL] | MIC ([4]; MHA) [µg/mL] | MIC [5] [µg/mL] | MIC ([6]; MHA) [µg/mL] | MIC ([7]; MHA) [µg/mL] | MIC (E. coli pBC SK(−); MHA) [µg/mL] | MIC ([8]; MHA) [µg/mL] | MIC ([9]; MHA) [µg/mL] | MIC ([10]; MHA) [µg/mL] | also measured
O=C(O)[C@H]1CS[C@@H]2CS[C@@H](CS)N12 [D-CS319] | 180 ± 20 | 640 ± 10 | – | – | – | – | – | – | – | – | – | k2 (VIM-2 [1]; [13]): (0.01 ± 1) × 10^−3 s^−1; k−2 (VIM-24 [2]; rate constant for breakdown of E*I): (0.004 ± 1) × 10^−3 s^−1; k2 (VIM-24 [2]; [13]): (0.07 ± 4) × 10^−3 s^−1
O=C(O)[C@@H]1CS[C@H]2CS[C@H](CS)N21 [L-CS319] | 40 ± 10 | 120 ± 20 | – | – | – | – | – | – | – | – | – | effect of prolonged exposure to oxidative conditions on inhibitory activity (MBLs): abolishes the inhibitory activity
CC1(C)S[C@@H]2[C@H](NC(=O)[C@H](N)c3ccccc3)C(=O)N2[C@H]1C(=O)O [ampicillin] | – | – | 512 (≈ 1470 µM) | 1020 (≈ 2930 µM) | 64 to 512 (≈ 183 to 1470 µM) | 1020 (≈ 2930 µM) | 32 (≈ 91.6 µM) | 4 (≈ 11.4 µM) | 1020 (≈ 2930 µM) | 512 (≈ 1470 µM) | 32 (≈ 91.6 µM) | –
C[C@H]1[C@H](NC(=O)/C(=N\OC(C)(C)C(=O)O)c2csc(N)n2)C(=O)N1S(=O)(=O)O [aztreonam] | – | – | ≤ 0.125 | ≤ 0.125 | ≤ 0.125 | ≤ 0.125 | ≤ 0.125 | ≤ 0.125 | ≤ 0.125 | ≤ 0.125 | ≤ 0.125 | –
CO/N=C(\C(=O)N[C@@H]1C(=O)N2C(C(=O)[O-])=C(C[N+]3(C)CCCC3)CS[C@H]12)c1csc(N)n1 [cefepime] | – | – | ≤ 0.5 | 16 (≈ 33.3 µM) | 1 to 4 (≈ 2.08 to 8.32 µM) | 2 (≈ 4.16 µM) | 0.25 (≈ 0.52 µM) | 0.03 (≈ 0.0624 µM) | 8 (≈ 16.6 µM) | 4 (≈ 8.32 µM) | 0.5 (≈ 1.04 µM) | MIC ([3]; MHA + 5 μM EDTA): 0.5 µg/mL; MIC ([3]; MHA + 250 μM Zn^2+): 0.5 µg/mL; MIC ([4]; MHA + 5 μM EDTA): 16 µg/mL; MIC ([4]; MHA + 250 μM Zn^2+): 32 µg/mL; rate of hydrolysis (initial velocity) in periplasm (VIM-24 [11]): 5.3e-07 M/s; MIC ([6]; MHA + 5 μM EDTA): 4 µg/mL; MIC ([6]; MHA + 250 μM Zn^2+): 2 µg/mL; MIC ([7]; MHA + 5 μM EDTA): ≤ 0.25 µg/mL; MIC ([7]; MHA + 250 μM Zn^2+): 0.5 µg/mL; MIC (E. coli pBC SK(−); MHA + 5 μM EDTA): ≤ 0.25 µg/mL; MIC (E. coli pBC SK(−); MHA + 250 μM Zn^2+): ≤ 0.25 µg/mL; MIC ([8]; MHA + 5 μM EDTA): 8 µg/mL; MIC ([8]; MHA + 250 μM Zn^2+): 8 µg/mL; rate of hydrolysis (initial velocity) in periplasm (VIM-2 [12]): 2.9e-07 M/s; MIC ([9]; MHA + 5 μM EDTA): 4 µg/mL; MIC ([9]; MHA + 250 μM Zn^2+): 4 µg/mL; MIC ([10]; MHA + 5 μM EDTA): ≤ 0.25 µg/mL; MIC ([10]; MHA + 250 μM Zn^2+): ≤ 0.25 µg/mL
CO/N=C(\C(=O)N[C@@H]1C(=O)N2C(C(=O)O)=C(COC(C)=O)CS[C@H]12)c1csc(N)n1 [cefotaxime] | – | – | 8 (≈ 17.6 µM) | 32 (≈ 70.3 µM) | 2 to 32 (≈ 4.39 to 70.3 µM) | 16 (≈ 35.1 µM) | 1 (≈ 2.2 µM) | 0.06 (≈ 0.132 µM) | 16 (≈ 35.1 µM) | 16 (≈ 35.1 µM) | 1 (≈ 2.2 µM) | –
